According to article PMC10218303, “Novel Polymyxin-Inspired Peptidomimetics Targeting the SARS-CoV-2 Spike:hACE2 Interface” (International Journal of Molecular Sciences, 2023):
Read-outs that look alike come from different tables or passages of the source. Bridge positions count the residues as written; N and C are the ends. Square brackets hold non-standard residues; d marks the D form. Peptide text beside a SMILES is read from it. Dab = NCC[C@H](N)C(=O)O

Legend:
[1] = amide bond, 23-membered ring
in vitro [2] = conditions: human
[3] = system: SARS-CoV-2 (strain Delta); experiment: microbe, parasite or virus in culture; conditions: Severe acute respiratory syndrome coronavirus 2, 120 h, read-out: IC50 Delta
[4] = system: SARS-CoV-2 (strain 20A.EU2); conditions: strain 20A.EU2, 2 h
[5] = system: SARS-CoV-2 (strain Delta); conditions: for IC50: strain Delta, 2 h
in vitro [6] = conditions: human; remark: listed apart in the source
[7] = the molecule shown is the open-chain precursor

| Compound | CC50 (in vitro [2]) [µM] | IC50 [4] [µM] | IC50 [5] [µM] | CC50 (in vitro [6]) [µM] | further results |
| --- | --- | --- | --- | --- | --- |
| CC(C)C[C@@H]1NC(=O)[C@@H](Cc2ccccc2)NC(=O)[C@H](Cc2ccc(OC(C)(C)C)cc2)NC(=O)[C@@H](NC(=O)[C@H](CCNC(=O)OC(C)(C)C)NC(=O)OCC2c3ccccc3-c3ccccc32)CCNC(=O)[C@H]([C@@H](C)OC(C)(C)C)NC(=O)[C@H](CCNC(=O)OC(C)(C)C)NC(=O)[C@H](Cc2cn(C(=O)OC(C)(C)C)c3ccccc23)NC1=O |  |  |  |  | ring closure, isolated yield ([1]; from Fmoc-Dab(Boc)-Dab-Tyr(tBu)-dPhe-Leu-Trp(Boc)-Dab(Boc)-Thr(tBu)-OH?, HATU/HOAt/2,4,6-collidine, DCM/DMF, 0.71 mM): 87% |
| CC(C)C[C@@H]1NC(=O)[C@@H](Cc2ccccc2)NC(=O)[C@H](Cc2ccc(OC(C)(C)C)cc2)NC(=O)[C@@H](NC(=O)[C@H](CCOC(c2ccccc2)(c2ccccc2)c2ccccc2)NC(=O)OCC2c3ccccc3-c3ccccc32)CCNC(=O)[C@H]([C@@H](C)OC(C)(C)C)NC(=O)[C@H](CCNC(=O)OC(C)(C)C)NC(=O)[C@H](Cc2cn(C(=O)OC(C)(C)C)c3ccccc23)NC1=O |  |  |  |  | ring closure, isolated yield ([1]; from Fmoc-Hse(Trt)-Dab-Tyr(tBu)-dPhe-Leu-Trp(Boc)-Dab(Boc)-Thr(tBu)-OH?, HATU/HOAt/2,4,6-collidine, DCM/DMF, 0.7 mM): 70% |
| CC(C)C[C@@H]1NC(=O)[C@@H](Cc2ccccc2)NC(=O)[C@H](Cc2ccc(OC(C)(C)C)cc2)NC(=O)[C@@H](NC(=O)[C@H](CCOC(c2ccccc2)(c2ccccc2)c2ccccc2)NC(=O)OCC2c3ccccc3-c3ccccc32)CCNC(=O)[C@H]([C@@H](C)OC(C)(C)C)NC(=O)[C@H](CCOC(c2ccccc2)(c2ccccc2)c2ccccc2)NC(=O)[C@H](Cc2cn(C(=O)OC(C)(C)C)c3ccccc23)NC1=O |  |  |  |  | ring closure, isolated yield ([1]; from Fmoc-Hse(Trt)-Dab-Tyr(tBu)-dPhe-Leu-Trp(Boc)-Hse(Trt)-Thr(tBu)-OH?, HATU/HOAt/2,4,6-collidine, DCM/DMF, 0.7 mM): 63% |
| CC(C)C[C@@H]1NC(=O)[C@@H](Cc2ccccc2)NC(=O)[C@H](Cc2cn(C(=O)OC(C)(C)C)c3ccccc23)NC(=O)[C@@H](NC(=O)[C@H](CCNC(=O)OC(C)(C)C)NC(=O)OCC2c3ccccc3-c3ccccc32)CCNC(=O)[C@H]([C@@H](C)OC(C)(C)C)NC(=O)[C@H](CCNC(=O)OC(C)(C)C)NC(=O)[C@H](Cc2cn(C(=O)OC(C)(C)C)c3ccccc23)NC1=O |  |  |  |  | ring closure, isolated yield ([1]; from Fmoc-Dab(Boc)-Dab-Trp(Boc)-dPhe-Leu-Trp(Boc)-Dab(Boc)-Thr(tBu)-OH?, HATU/HOAt/2,4,6-collidine, DCM/DMF, 0.7 mM): 70% |
| CC(C)C[C@H](NC(=O)OCC1c2ccccc2-c2ccccc21)C(=O)N[C@H]1CCNC(=O)[C@H]([C@@H](C)OC(C)(C)C)NC(=O)[C@H](CCNC(=O)OC(C)(C)C)NC(=O)[C@H](CCNC(=O)OC(C)(C)C)NC(=O)[C@H](CC(C)C)NC(=O)[C@@H](Cc2ccccc2)NC(=O)[C@H](Cc2cn(C(=O)OC(C)(C)C)c3ccccc23)NC1=O |  |  |  |  | ring closure, isolated yield ([1]; from Fmoc-Leu-Dab-Trp(Boc)-dPhe-Leu-Dab(Boc)-Dab(Boc)-Thr(tBu)-OH?, HATU/HOAt/2,4,6-collidine, DCM/DMF, 0.7 mM): 78% |
| CC[C@H](C)[C@@H]1NC(=O)[C@@H](NC(=O)[C@H](CCNC(=O)OC(C)(C)C)NC(=O)[C@@H](NC(=O)[C@H](CC(C)C)NC(C)=O)[C@@H](C)OC(C)(C)C)CCNC(=O)[C@H](CN=[N+]=[N-])NC(=O)[C@H](CCNC(=O)OC(C)(C)C)NC(=O)[C@H](CCNC(=O)OC(C)(C)C)NC(=O)[C@H](Cc2ccc(OC(C)(C)C)cc2)NC(=O)[C@@H](Cc2ccccc2)NC1=O |  |  |  |  | ring closure, isolated yield ([1]; from Ac-Leu-Thr(tBu)-Dab(Boc)-Dab(H-azidoAla)-Ile-dPhe-Tyr(tBu)-Dab(Boc)-Dab(Boc)-OH, HATU/HOAt/2,4,6-collidine, DCM/DMF 14:1, 0.7 mM): 74% |
| N#C[C@@]1(c2ccc3c(N)ncnn23)O[C@H](CO)[C@@H](O)[C@H]1O [GS-441524, reference compound] | > 40 |  |  |  | IC50 [3]: 2.3 µM |
| CC[C@H](C)[C@@H]1NC(=O)[C@@H](NC(=O)[C@H](CCN)NC(=O)[C@@H](NC(=O)[C@H](CC(C)C)NC(C)=O)[C@@H](C)O)CCNC(=O)[C@H](Cn2cc(CC(=O)N[C@@H](CCN)C(=O)N[C@H]3CCNC(=O)[C@H]([C@@H](C)O)NC(=O)[C@H](CCN)NC(=O)[C@H](Cc4c[nH]c5ccccc45)NC(=O)[C@H](CC(C)C)NC(=O)[C@@H](Cc4ccccc4)NC(=O)[C@H](Cc4ccc(O)cc4)NC3=O)nn2)NC(=O)[C@H](CCN)NC(=O)[C@H](CCN)NC(=O)[C@H](Cc2ccc(O)cc2)NC(=O)[C@@H](Cc2ccccc2)NC1=O [dimer 3] | > 50 | > 50 | > 50 | > 50 |  |
| CC[C@H](C)[C@@H]1NC(=O)[C@@H](NC(=O)[C@H](CCN)NC(=O)[C@@H](NC(=O)[C@H](CC(C)C)NC(C)=O)[C@@H](C)O)CCNC(=O)[C@H](Cn2cc(CCC(=O)N[C@@H](CCN)C(=O)N[C@H]3CCNC(=O)[C@H]([C@@H](C)O)NC(=O)[C@H](CCN)NC(=O)[C@H](Cc4c[nH]c5ccccc45)NC(=O)[C@H](CC(C)C)NC(=O)[C@@H](Cc4ccccc4)NC(=O)[C@H](Cc4ccc(O)cc4)NC3=O)nn2)NC(=O)[C@H](CCN)NC(=O)[C@H](CCN)NC(=O)[C@H](Cc2ccc(O)cc2)NC(=O)[C@@H](Cc2ccccc2)NC1=O [dimer 4] | > 50 | > 50 | > 50 | > 50 |  |
| CC(=O)N[C@@H](CCC(=O)O)C(=O)N[C@H](C(=O)N[C@@H](CCN)C(=O)N[C@H]1CCNC(=O)[C@H](Cn2cc(CC(=O)N[C@@H](CC(C)C)C(=O)N[C@H]3CCNC(=O)[C@H]([C@@H](C)O)NC(=O)[C@H](CCN)NC(=O)[C@H](CCN)NC(=O)[C@H](CC(C)C)NC(=O)[C@@H](Cc4ccccc4)NC(=O)[C@H](Cc4c[nH]c5ccccc45)NC3=O)nn2)NC(=O)[C@H](CCN)NC(=O)[C@H](CCN)NC(=O)[C@H](Cc2ccc(O)cc2)NC(=O)[C@@H](Cc2ccccc2)NC(=O)[C@H](Cc2ccc(O)cc2)NC1=O)[C@@H](C)O [dimer 7] | > 50 | > 50 | > 50 | > 50 | antiviral effect, in words [5]: a hint of antiviral effect |
| CC(=O)N[C@@H](CCC(=O)O)C(=O)N[C@H](C(=O)N[C@@H](CCN)C(=O)N[C@H]1CCNC(=O)[C@H](Cn2cc(CC(=O)N[C@@H](CCN)C(=O)N[C@H]3CCNC(=O)[C@H]([C@@H](C)O)NC(=O)[C@H](CCN)NC(=O)[C@H](Cc4c[nH]c5ccccc45)NC(=O)[C@H](CC(C)C)NC(=O)[C@@H](Cc4ccccc4)NC(=O)[C@H](Cc4c[nH]c5ccccc45)NC3=O)nn2)NC(=O)[C@H](CCN)NC(=O)[C@H](CCN)NC(=O)[C@H](CC(C)C)NC(=O)[C@@H](Cc2ccccc2)NC(=O)[C@H](Cc2ccc(O)cc2)NC1=O)[C@@H](C)O [dimer 10] | > 50 | > 50 | > 50 | > 50 |  |
| CC(C)C[C@@H]1NC(=O)[C@@H](Cc2ccccc2)NC(=O)[C@H](Cc2ccc(O)cc2)NC(=O)[C@@H](NC(=O)[C@@H](N)CCN)CCNC(=O)[C@H]([C@@H](C)O)NC(=O)[C@H](CCN)NC(=O)[C@H](Cc2c[nH]c3ccccc23)NC1=O [monomer 1] (H-[Dab][Dab]Y[dF]LW[Dab]T; lactam 2-C) | > 50 | > 50 | > 50 | > 50 |  |
| CC[C@H](C)[C@@H]1NC(=O)[C@@H](NC(=O)[C@H](CCN)NC(=O)[C@@H](NC(=O)[C@H](CC(C)C)NC(C)=O)[C@@H](C)O)CCNC(=O)[C@H](Cn2cc(CC(=O)O)nn2)NC(=O)[C@H](CCN)NC(=O)[C@H](CCN)NC(=O)[C@H](Cc2ccc(O)cc2)NC(=O)[C@@H](Cc2ccccc2)NC1=O [monomer 2] | > 50 | > 50 | > 50 | > 50 |  |
| CC(C)C[C@@H]1NC(=O)[C@@H](Cc2ccccc2)NC(=O)[C@H](Cc2c[nH]c3ccccc23)NC(=O)[C@@H](NC(=O)[C@@H](N)CC(C)C)CCNC(=O)[C@H]([C@@H](C)O)NC(=O)[C@H](CCN)NC(=O)[C@H](CCN)NC1=O [monomer 5] (H-L[Dab]W[dF]L[Dab][Dab]T; lactam 2-C) | > 50 | > 50 | > 50 | > 50 |  |
| CC(=O)N[C@@H](CCC(=O)O)C(=O)N[C@H](C(=O)N[C@@H](CCN)C(=O)N[C@H]1CCNC(=O)[C@H](Cn2cc(CC(=O)O)nn2)NC(=O)[C@H](CCN)NC(=O)[C@H](CCN)NC(=O)[C@H](Cc2ccc(O)cc2)NC(=O)[C@@H](Cc2ccccc2)NC(=O)[C@H](Cc2ccc(O)cc2)NC1=O)[C@@H](C)O [monomer 6] | > 50 | > 50 | > 50 | > 50 |  |
| CC(C)C[C@@H]1NC(=O)[C@@H](Cc2ccccc2)NC(=O)[C@H](Cc2c[nH]c3ccccc23)NC(=O)[C@@H](NC(=O)[C@@H](N)CCN)CCNC(=O)[C@H]([C@@H](C)O)NC(=O)[C@H](CCN)NC(=O)[C@H](Cc2c[nH]c3ccccc23)NC1=O [monomer 8] (H-[Dab][Dab]W[dF]LW[Dab]T; lactam 2-C) | > 50 | > 50 | > 50 | > 50 | antiviral effect, in words [5]: a hint of antiviral effect |
| CC(=O)N[C@@H](CCC(=O)O)C(=O)N[C@H](C(=O)N[C@@H](CCN)C(=O)N[C@H]1CCNC(=O)[C@H](Cn2cc(CC(=O)O)nn2)NC(=O)[C@H](CCN)NC(=O)[C@H](CCN)NC(=O)[C@H](CC(C)C)NC(=O)[C@@H](Cc2ccccc2)NC(=O)[C@H](Cc2ccc(O)cc2)NC1=O)[C@@H](C)O [monomer 9] | > 50 | > 50 | > 50 | > 50 |  |
| Ac-Glu(tBu)-Thr(tBu)-Dab(Boc)-Dab(H-Ala(N3))-Tyr(tBu)-dPhe-Leu-Dab(Boc)-Dab(Boc)-OH? |  |  |  |  | ring closure, isolated yield [1, 7]: 65% |
| Ac-Glu(tBu)-Thr(tBu)-Dab(Boc)-Dab(H-Ala(N3))-Tyr(tBu)-dPhe-Tyr(tBu)-Dab(Boc)-Dab(Boc)-OH? |  |  |  |  | ring closure, isolated yield [1, 7]: 48% |
| Ac-Leu-Thr(tBu)-Dab(Boc)-Dab(H-Ala(N3))-Ile-dPhe-Tyr(tBu)-Dab(Boc)-Dab(Boc)-OH? |  |  |  |  | ring closure, isolated yield [1, 7]: 74% |
| Ac-Leu-Thr(tBu)-Dab(Boc)-Dab(H-Ala(N3))-Ile-dPhe-Tyr(tBu)-Hse(Trt)-Hse(Trt)-OH? |  |  |  |  | ring closure, isolated yield [1, 7]: 90% |
